The test system of data set [1] is patients with prostate problems, such as an enlarged prostate. The data set can be described thus: Case report: enlarged prostate drugs combined with MR treatment. Type of data set: in vivo, human. To be noted: for PSA count, last measurement before MR treatment: person, enlarged prostate for fifteen years, taking the drugs; for PSA count after eighteen months of treatment / prostate size after eighteen months of treatment: same subject, three MR treatments per week. On the procedure:
In one example, a person had been diagnosed with an enlarged prostate for fifteen years and their PSA count was rising (the last measurement was 2.35). The subject was taking the drugs Avodart and Flomax. The subject began a series of three treatments per week for […], and continuing on an ongoing basis.
In providing MR treatment to a subject with prostate problems, an amplitude of about 0.01 μG to about 0.4 μG, with a frequency of about 0.2799 Hz to about 11.197 Hz may be used.

In data set [2] the test system is fibromyalgia patients. The data set can be described thus: Case reports: fibromyalgia, drugs combined with MR treatment. It is filed as in vivo, human. On the procedure:
In one example, a person experienced fibromyalgia for a number of years. The subject also experienced insomnia, restless legs, and chronic fatigue. The subject took the drug Naproxen (Aleve). The subject received seven consecutive days of 1 to 1.5 hour treatments.
Their primary complaint was back pain. […] The subject received thirteen treatments within a two-month period. […] Approximately two months after completing their first series of treatment, they began a second regimen of ten treatments within a two-month period.
In a further example, a person at least fifty years old suffered from fibromyalgia for a number of years. […] The subject received daily (when possible) treatments for approximately one year.

The subject of data set [3] is migraine and headache patients. Put plainly: Case reports: migraine and headache drugs combined with MR treatment. It is filed as in vivo, human. To be noted: for results on migraines / pain level before being resonated / reduction in pain level: person with migraines taking the drugs; for results on migraines: resonated ten times, 1 to 1.5 hours, over one month; for pain level before being resonated / pain level after treatment: scale of zero to ten; for reduction in pain level: two one-hour MR treatments three months apart; for pain level after treatment: same subject, after ten MR treatments over one month.
Experimental: The subject was resonated ten times for 1 to 1.5 hours per treatment over a one-month period.
In another example, a person experienced pain associated with migraines. […] The subject received two one-hour treatments three months apart.
In a further example, a person experienced pain associated with severe headaches. The subject took Aspirin to treat the pain. The subject received one treatment for one hour.

Data set [4] concerns osteoarthritis patients. Conditions: person. The source says:
In one example, a person suffered from back pain due to degenerative disk disease in their low back and sciatica. […] The subject was resonated approximately three times per week for more than one year.
In another example, a person experienced arthritis pain in a number of joints, including their hips, hands, and shoulders. The subject also suffered from sciatica in their hips and legs. The subject was taking Celebrex. The subject was resonated at least three times per week for one to two hours per session.
In a further example, a person experienced osteoarthritis pain and stiffness in their hands and finger joints. […] The subject was resonated twice for one-half hour per treatment. The subject was asked to rate their pain on a scale of zero (feels great) to ten (feels terrible) before and after treatment.
Alternatively, an amplitude of about 0.01 μG to about 0.46 μG, with a frequency of about 0.2799 Hz to about 12.8765 Hz may be used.

Data set [5] relates to Parkinson's patient. Put plainly: Onset of dyskinesias after Levodopa, with and without magnetic resonance (MR) treatment. Type of data set: in vivo, human. To be noted: for % Improved: MR result vs baseline; for MR Result Onset of Dyskinesias: MR whole body immersion (7′). How it is done: Subsequently, the selected magnetic resonance treatment regimen may be transmitted from the MR system server 160 to the client computer 120. The operator 138 then may carry out the treatment regimen upon the subject 150 according to the recommended treatment regimen. For example, the recommended magnetic resonance treatment regimen may specify a certain number and frequency of treatment events, wherein for each treatment an amount of a certain substance is administered to the body of the subject, and the subject is then resonated with electromagnetic energy of a certain flux density and certain frequency for a certain amount of time. Subsequent to each magnetic resonance treatment, all related data is updated locally at the client computer 120 and/or remotely at the MR system server 160.

Data set [6] has as its system Parkinson's patient. The data set can be described thus: Average off time of Levodopa, baseline versus MR treatment. It is filed as in vivo, human. Conditions: for % Improved: MR result vs baseline. The text has this:
In the example of Table 1, the MR analysis algorithm 166 has performed a query, for example, on the terms “Indication=Parkinson's” in combination with “Substance=Levodopa,” in order to produce one or more records of one or more subjects of one or more treatment events. Subsequently, the selected magnetic resonance treatment regimen may be transmitted from the MR system server 160 to the client computer 120. The operator 138 then may carry out the treatment regimen upon the subject 150 according to the recommended treatment regimen. For example, the recommended magnetic resonance treatment regimen may specify a certain number and frequency of treatment events, wherein for each treatment an amount of a certain substance is administered to the body of the subject, and the subject is then resonated with electromagnetic energy of a certain flux density and certain frequency for a certain amount of time. Subsequent to each magnetic resonance treatment, all related data is updated locally at the client computer 120 and/or remotely at the MR system server 160. Using the example of a subject 150 that has Parkinson's disease, a side effect of certain Parkinson's drugs may be involuntary movements called dyskinesias. Therefore, an example of results that may be logged in treatment data 137 may be observations as to the amount of time from beginning of treatment to the onset of dyskinesias, which is an indication as to the amount of time that it has taken for the substance 152 to enter the subject's body systems. Other observable effects of the MR treatment after the substance 152 that has been administered to the subject's body systems may be a reduction in off time of the drug, a reduction in tremors, and a reduction in joint stiffness.

Where [7] appears, read: same subject, thirteen MR treatments within a two-month period.

Experimental findings from patent US8421457B2, “Methods and systems for magnetically resonating both a subject and a substance administered to the subject” (Applied Magnetics, LLC, priority 2008, dated 2013) are described below.

With `CCOc1ccccc1OCCN[C@H](C)Cc1ccc(OC)c(S(N)(=O)=O)c1` [Flomax], in data set [1], the “PSA count, last measurement before MR treatment” value is on record as 2.35; the “PSA count after eighteen months of treatment” value was 0.95; the “prostate size after eighteen months of treatment” value is recorded as “no longer enlarged”.
With `COc1ccccc1OCC(O)COC(N)=O` (stereo not drawn) [Robaxin], in data set [2] (setting [7]), the “pain level after treatment, first series” value was found to be 0.5.
For `CNS(=O)(=O)Cc1ccc2[nH]cc(CCN(C)C)c2c1` [Immitrex], in data set [3], the results on migraines was “decreased frequency and duration of migraines”; the “pain level before being resonated” value was “nine”; the “reduction in pain level” value is listed as 50%; the “pain level after treatment” value is “two”.
Take `CCC(=O)O[C@]1(C(=O)SCF)[C@H](C)C[C@H]2[C@@H]3C[C@H](F)C4=CC(=O)C=C[C@]4(C)[C@@]3(F)[C@@H](O)C[C@@]21C` [Flonase]: in data set [2] (setting [7]), the “pain level after treatment, first series” value was determined as 0.5.
Turning to `CN1CC[C@]23c4c5ccc(O)c4O[C@H]2[C@@H](O)C=C[C@H]3[C@H]1C5` [Morphine], in data set [2] (in vivo), the “pain level after treatment, first series” value is 0.5.
Consider `C[C@]12C=CC(=O)N[C@@H]1CC[C@@H]1[C@@H]2CC[C@]2(C)[C@@H](C(=O)Nc3cc(C(F)(F)F)ccc3C(F)(F)F)CC[C@@H]12` [Avodart], for which, in data set [1], the “PSA count, last measurement before MR treatment” value is reported as 2.35; the “PSA count after eighteen months of treatment” value is listed as 0.95; the “prostate size after eighteen months of treatment” value was “no longer enlarged”.
For `CC1(C)O[C@@H]2[C@@H](CO[C@@]3(COS(N)(=O)=O)OC(C)(C)O[C@@H]23)O1` [Topomax], in data set [3], the results on migraines was “decreased frequency and duration of migraines”; the “pain level before being resonated” value is reported as “nine”; the “reduction in pain level” value stood at 50%; the “pain level after treatment” value was “two”.
For `Cc1ccc(-c2cc(C(F)(F)F)nn2-c2ccc(S(N)(=O)=O)cc2)cc1` [Celebrex], the results of treatment in data set [4] (arthritis pain and sciatica, taking Celebrex, resonated at least three times per week, one to two hours per session) is “a reduction in dosage and frequency of taking Celebrex, decreased pain, improved mobility, and improved sleep”.
Take `CC(C)C[C@H](CN)CC(=O)O` [Lyrica]: in data set [2] (in vivo), the “pain level after treatment, first series” value was found to be 0.5.
As to `NS(=O)(=O)c1cc2c(cc1Cl)NCNS2(=O)=O` [HCTZ], the “pre-treatment pain level, first series” value in data set [2] (person, fibromyalgia, back pain, on the listed drugs, before MR) is recorded as 4. Moreover, in data set [2] (same subject, approx. two months after first series, before second regimen), the “initial pain level, second series” value is recorded as 4. In data set [2] (setting [7]), the “pain level after treatment, first series” value is 0.5.
In the case of `O=C1CN=C(c2ccccc2Cl)c2cc([N+](=O)[O-])ccc2N1` [Clonazepam], in data set [2] (setting [7]), the “pain level after treatment, first series” value is recorded as 0.5.
Consider `CCOC(=O)N1CCC(=C2c3ccc(Cl)cc3CCc3cccnc32)CC1` [Claritin], for which the “pain level after treatment, first series” value in data set [2] (setting [7]) worked out at 0.5.
On the same count and under the same terms, as for `CCN(CC)CC(=O)Nc1c(C)cccc1C` [lidoderm], the figure is 0.5.
For `COc1ccc2cc([C@H](C)C(=O)O)ccc2c1` [Naproxen], the “results of continuing treatment” value in data set [4] (back pain (degenerative disk disease, sciatica), taking the drugs, resonated approx. three times per week for more than one year) was “significantly less pain, an improved range of motion, and improved sleep”. The “pain level before treatment” value in data set [2] (Person, fibromyalgia, took Naproxen (Aleve)) is on record as “six”. For the same compound, the “initial pain levels before treatments” value in data set [2] (person, fibromyalgia, taking Naproxen (Aleve), depending on the area of the body) is listed as “three to seven”. In addition, in data set [2] (same subject, daily (when possible) MR treatments for approximately one year), the pain after treatment entry is listed as “total elimination of pain”. Also, the “pain level after completing treatment” value in data set [2] (same subject, seven consecutive days of 1 to 1.5 hour MR treatments) is “zero to one”.
`N[C@@H](Cc1ccc(O)c(O)c1)C(=O)O` [Levodopa]: the “time from consuming Levodopa to dyskinesias” value in data set [5] (Example 1, Parkinson's patient, no magnetic resonance) is “about 38 minutes”; in data set [5] (Example 1, same Parkinson's patient, substantially the same dosage, then receives magnetic resonance) it was “about 22 minutes”. The “absorption rate and efficacy of Levodopa on resonating the patient” value in data set [5] (Parkinson's patient resonated after consuming Levodopa) was “improved the absorption rate of Levodopa”. Moreover, the “% Improved” value is on record as 42% in data set [5] (Record # 1265: onset of dyskinesias, Levodopa 25 mg); 37% in data set [5] (Record # 7508: onset of dyskinesias, Levodopa 50 mg); 17% in data set [6] (Record # 4752: average off time, Levodopa 50 mg); 33% in data set [6] (Record # 5942: average off time, Levodopa 25 mg). Further, the “Baseline Onset of Dyskinesias” value in data set [5] (Record # 1265: subject A-84, Parkinson's, Levodopa 25 mg ingested) was “Onset of Dyskinesias 38 mins”; in data set [5] (Record # 7508: subject W-65, Parkinson's, Levodopa 50 mg ingested), “Onset of Dyskinesias 43 mins”. The “MR Result Onset of Dyskinesias” value in data set [5] (Record # 1265: subject A-84, Levodopa 25 mg ingested, 0.0667 microgauss, 2.0 Hz, square, 60 mins) is “Onset of Dyskinesias 22 mins”; in data set [5] (Record # 7508: subject W-65, Levodopa 50 mg ingested, 0.0697 microgauss, 1.9 Hz, sinusoidal, 80 mins), “Onset of Dyskinesias 27 mins”. For the same compound, the “Baseline Average off time” value is reported as “Average off time 6 hours” in data set [6] (Record # 4752: subject W-65, Parkinson's, Levodopa 50 mg ingested) and “Average off time 6 hours” in data set [6] (Record # 5942: subject AA-35, Parkinson's, Levodopa 25 mg ingested). Besides, the “MR Result Average off time” value in data set [6] (Record # 4752: subject W-65, Levodopa 50 mg ingested, MR partial immersion (4′), 0.0697 microgauss, 1.9 Hz, sinusoidal, 90 mins) was “Average off time 5 hours”; in data set [6] (Record # 5942: subject AA-35, Levodopa 25 mg ingested, MR partial immersion (22″), 0.0717 microgauss, 1.8 Hz, triangle, 70 mins), “Average off time 4 hours”.
